Values of other authors in US10258574B2, “Method of preparing itraconazole preparation” (CHANGZHOU PHARMACEUTICAL FACTORY CO., LTD., priority 2015, dated 2019).

Conditions: rat; clinical relevance yet unclear

In the case of 2-hydroxypropyl-β-cyclodextrin, the carcinogenicity finding is given as “cause pancreatic cancer”.
